{"source": "patent US11534457B2", "about": "“Use of dextran sulfate” (priority 2017, dated 2022)", "test_system": "Mouse motor neurons (Aruna)", "assay": "Gene expression array and pathway analysis, motor neurons", "assay_type": "cell-based", "experimental": "For each cell line, n=8×25 cm^2 culture flasks were set up. Two flasks were harvested for each cell type on the day of treatment (24 hours after seeding). This represents the Day0 time point. From the remaining flasks, three flasks were treated with Control Medium and three were treated with Culture Medium (CM) containing LMW-DS to give a final concentration of 0.01 mg/ml. Cells from the treated flasks were collected after 48 hours. Therefore the collected data represent (a) untreated cells (Day0 Controls and Day2 Controls) and (b) cells treated with LMW-DS for 48 hours (Day2 LMW-DS treated).\n25 cm^2 flasks were coated by adding 2 ml per flask of a solution of 50 μg/ml poly-d-lysine in Hank's balanced salt solution (HBSS) and incubating overnight at 37° C. in the dark. Flasks were washed with cell culture water and air-dried for 30 min in the dark. Flasks were coated by adding 1 ml per flask of a solution of 25 μg/ml laminin in phosphate-buffered saline (PBS) and incubating for 2 hour at 37° C. in the dark. The laminin flasks were washed with PBS three times before plating cells.\nThe culture medium was prepared according to Table 5.\nMedium (see Table 5) was pre-warmed to 37° C. Cells were thawed in a 37° C. water bath for no longer than 2 min. 9 ml of media was gently added drop-wise. The cell suspension was mixed by inverting the tube carefully twice. The cells were counted with a Cellometer. The cells were centrifuged for 5 minutes at 200×g. Supernatant was removed (to the last 0.5 ml) and cells were gently resuspended by trituration. The cells from the 8 vials were mixed and distributed equally into the previously coated 25 cm^2 flasks (n=8). Cells were incubated at 37° C. with 5% CO2 for 24 hours before treatment.\nLMW-DS was provided at a stock concentration of 20 mg/ml and was kept in a temperature monitored refrigerator at 4° C. A fresh […]LMW-DS stock (1.0 mg/ml) was prepared in sterile DMEM-F12. The concentrated drug stock was sterile filtered and added to the respective culture media (19.6 ml CM and 0.4 ml LMW-DS stock solution). The Control was made using 19.6 ml CM and 0.4 ml of DMEM-F12. LMW-DS and CM were added to the respective flasks (5 ml each) to reach the 0.01 mg/ml concentration of LMW-DS in each dish with a total of 10 ml CM each.\nCM was aspirated into a clean and labelled 15 ml Falcon tube. The flasks (without culture medium) were placed into the −80° C. freezer for 30 minutes. The CM in the Falcon tubes were spun at 3000×g for 5 minutes. Supernatant was removed and the small pellet was re-suspended in 2.5 ml Trizol:Water (4:1) solution at room temperature (RT, […]).\nTwo aliquots of 1 ml lysate was removed from each sample and 200 μl of chloroform was added to each (0.2 ml of chloroform per 1 ml of TRIzol Reagent used during the cell lysis step) and the tube was shaken vigorously. Samples were stored at RT for 2-3 minutes and subsequently centrifuged at 12,000×g for 15 minutes at 4° C.\nThe expression data were downloaded into separate files for each cell line. The ‘Background corrected’ expression is the data from the “gProcessedSignal” of the arrays that is the result of the background signal extracted from the actual signal of the relevant probe. This is the most often used variable in array analysis. The background corrected signal was log 2 transformed for all samples for statistical analysis. To reduce the false discovery rate in the samples, the signals that were below ‘expression level’ were removed. The ‘below expression’ level was set at 5 for the log 2 transformed expression values.\nBased on the expression pattern of the Control probes on each array it was decided to carry out Median Centering for all arrays before analysis to reduce the variability of the results. […]", "data": [{"substance": "low molecular weight dextran sulfate [LMW-DS]", "values": [{"measurement": "HtrA2", "setting": "0.01 mg/ml, 48 h", "result": "inhibition"}, {"measurement": "amyloid-β production", "setting": "0.01 mg/ml, 48 h", "result": "preventing amyloid-β production"}, {"measurement": "apoptosis pathway (F in FIG. 18)", "setting": "0.01 mg/ml, 48 h", "result": "preventing and inhibiting apoptosis"}, {"measurement": "cellular attachment from expression patterns (neurons)", "setting": "0.01 mg/ml, 48 h", "result": "significant inhibition of cellular attachment"}, {"measurement": "fatty acid oxidation", "setting": "0.01 mg/ml, 48 h", "result": "inhibiting fatty acid oxidation"}, {"measurement": "inhibition of glutamate production at baseline", "setting": "0.01 mg/ml, 48 h", "result": "not affected"}, {"measurement": "level of H2O2", "setting": "0.01 mg/ml, 48 h", "result": "reduced"}, {"measurement": "number of genes differentially expressed, D0 control to the D2 LMW-DS treated samples (second statement)", "setting": "0.01 mg/ml, 48 h", "result": 425, "unit": "genes"}, {"measurement": "number of genes differentially expressed, D0 control vs D2 LMW-DS treated", "setting": "0.01 mg/ml, 48 h", "result": 315, "unit": "genes"}, {"measurement": "number of genes: abolished nutrient effect / no effect", "setting": "0.01 mg/ml, 48 h", "result": 177}, {"measurement": "number of genes: abolished nutrient effect / significant downregulation", "setting": "0.01 mg/ml, 48 h", "result": 47}, {"measurement": "number of genes: abolished nutrient effect / significant upregulation", "setting": "0.01 mg/ml, 48 h", "result": 40}, {"measurement": "number of genes: abolished nutrient effect / total", "setting": "0.01 mg/ml, 48 h", "result": 264}, {"measurement": "number of genes: enhanced response to nutrients / significant downregulation", "setting": "0.01 mg/ml, 48 h", "result": 36}, {"measurement": "number of genes: enhanced response to nutrients / significant upregulation", "setting": "0.01 mg/ml, 48 h", "result": 103}, {"measurement": "number of genes: enhanced response to nutrients / total", "setting": "0.01 mg/ml, 48 h", "result": 139}, {"measurement": "number of genes: new effect induced by LMW-DS / no effect", "setting": "0.01 mg/ml, 48 h", "result": 108}, {"measurement": "number of genes: new effect induced by LMW-DS / significant downregulation", "setting": "0.01 mg/ml, 48 h", "result": 375}, {"measurement": "number of genes: new effect induced by LMW-DS / significant upregulation", "setting": "0.01 mg/ml, 48 h", "result": 71}, {"measurement": "number of genes: new effect induced by LMW-DS / total", "setting": "0.01 mg/ml, 48 h", "result": 554}, {"measurement": "number of genes: not different from control / significant downregulation", "setting": "0.01 mg/ml, 48 h", "result": 104}, {"measurement": "number of genes: not different from control / significant upregulation", "setting": "0.01 mg/ml, 48 h", "result": 75}, {"measurement": "number of genes: not different from control / total", "setting": "0.01 mg/ml, 48 h", "result": 179}, {"measurement": "number of genes: total / no effect", "setting": "0.01 mg/ml, 48 h", "result": 285}, {"measurement": "number of genes: total / significant downregulation", "setting": "0.01 mg/ml, 48 h", "result": 562}, {"measurement": "number of genes: total / significant upregulation", "setting": "0.01 mg/ml, 48 h", "result": 289}, {"measurement": "number of genes: total / total", "setting": "0.01 mg/ml, 48 h", "result": 1136}, {"measurement": "upstream regulator AGT: activation z-score", "setting": "D0 to LMW-DS treatment", "result": 2.631}, {"measurement": "upstream regulator AGT: predicted activation state relative D2 control", "setting": "D0 to LMW-DS treatment", "result": "Activated"}, {"measurement": "upstream regulator BMP4: activation z-score", "setting": "D0 to LMW-DS treatment", "result": 0.972}, {"measurement": "upstream regulator BMP4: predicted activation state relative D2 control", "setting": "D0 to LMW-DS treatment", "result": "More activated relative to control"}, {"measurement": "upstream regulator BMP6: activation z-score", "setting": "D0 to LMW-DS treatment", "result": 0.13}, {"measurement": "upstream regulator BMP6: predicted activation state relative D2 control", "setting": "D0 to LMW-DS treatment", "result": "More activated relative to control"}, {"measurement": "upstream regulator BMP7: activation z-score", "setting": "D0 to LMW-DS treatment", "result": 1.092}, {"measurement": "upstream regulator BMP7: predicted activation state relative D2 control", "setting": "D0 to LMW-DS treatment", "result": "More activated relative to control"}, {"measurement": "upstream regulator INHA: activation z-score", "setting": "D0 to LMW-DS treatment", "result": 0.588}, {"measurement": "upstream regulator INHA: predicted activation state relative D2 control", "setting": "D0 to LMW-DS treatment", "result": "More activated relative to control"}]}]}
